# Test results: US20230013402A1, “REGENERATING FUNCTIONS AND PHENOTYPES OF CONNECTIVE TISSUE THROUGH NPAS2 SUPPRESSION” (The Regents of the University of California, priority 2019, published 2023)
# Where a name gives a salt, the structure may show the parent alone. Read-outs that look alike come from different tables or passages of the source.
# Columns and labels:
# Npas2-LacZ expression = experiment: High throughput screening of LOPAC1280 for Npas2-LacZ expression of mouse BMSC; type: cell-based; parameters: concentration or dose not given beside the values; details: Activity against negative controls in LOPAC screening; Npas2 downregulation
# Excerpt: FIGS. 13A-13C show an unbiased chemical genetics analysis was used to determine the molecular mechanisms underlying implant osseointegration. […] Hit compounds were identified as z-score >2.5 or <−2.5.
# Femur BMSC derived from Npas2−/− mouse was previously characterized for the expression of LacZ, as described by Hassan, N., et al., (2017) Titanium biomaterials with complex surfaces induced aberrant peripheral circadian rhythms in bone marrow mesenchymal stromal cells. PLoS One 12, e0183359, which is incorporated by reference herein in its entirety, which was used for high throughput screening of LOPAC 1280 (FIG. 13A). […] The validation study identified a total of 14 compounds (FIG. 13C), which were subjected to the chemical genetics analysis. […] By contrast, Npas2 down regulating compounds stimulate or accumulate cAMP, or induce cAMP response element binding (CREB) activation (Table 3).
# [1] = test system: Npas2-LacZ reporter gene (Npas2 expression); experiment: High throughput screening of FDA Approved Drug Library for Npas2-LacZ reporter expression; type: cell-based, mouse
# Excerpt: (§1) Mouse MSC carrying Npas2-LacZ reporter gene, as described by Hassan N, et al., PLoS One. 2017; 12(8):e0183359, which is incorporated by reference herein in its entirety, was immortalized using SV40 in order to accommodate a large-scale HTS. […] This cell system was used to screen FDA Approved Drug Library (1120 compounds). The same library was also screened for cell viability by Calcein AM Hoechst 33342 staining Cell migration assays using the Oris™ Pro Cell Migration Assay plate, as described by Joy M E et al., PloS one. 2014; 9(2):e88350, which is incorporated by reference herein in its entirety, was used for a high-throughput migration assay using human skin fibroblasts
# (§2) The combined Z score was used to identify hit compounds (Table 1).
# human skin fibroblasts = experiment: High-throughput cell migration assay (Oris Pro Cell Migration Assay plate) / standardized viability; type: cell-based
# Excerpt: as §1, §2
# fibroblasts = details: in vitro, compared to vehicle; cited from earlier work
# [2] = Table 2, additional Npas2 expression suppressors
# [3] = Table 1, HTS of FDA Drug Library
# [4] = Table 1, combined Z score (product)
Compound,"NPAS2 Z Score [1, 2]",Migration (standardized viability) Z Score (human skin fibroblasts; [2]),further results
"CC[n+]1c(/C=C/C=C2/N(C)c3ccccc3C2(C)C)sc2ccccc21.[I-] [Down06, AC-93253 iodide]",,,% Activity (Npas2-LacZ expression): −25.1%
CN(Cc1ccc(C(C)(C)C)cc1)Cc1cccc2ccccc12.Cl [Butenafine Hydrochloride],−2.02,0.239,
O=C(OC1C[C@@H]2CC3C[C@H](C1)N2CC3=O)c1c[nH]c2ccccc12 (stereo partly drawn) [Dolasetron mesilate],−2.64,−1.91,
O=C(N/N=C/c1ccc([N+](=O)[O-])o1)c1ccc(O)cc1 [Nifuroxazide],−3.43,−0.402,
"C/C=C(/C)C(=O)O[C@H]1C(C)=C2[C@H]([C@@H]1OC(=O)CCCCCCC)[C@@](C)(OC(C)=O)C[C@H](OC(=O)CCC)[C@@]1(O)[C@H]2OC(=O)[C@@]1(C)O [Down12, THAPSIGARGIN]",,,% Activity (Npas2-LacZ expression): −43.5%
"c1ccc2c(c1)[I+]c1ccccc1-2 [Down08, Diphenyleneiodonium chloride]",,,% Activity (Npas2-LacZ expression): −18.6%
"CCN(CC)CCOc1ccc(Nc2ncc3cc(-c4c(Cl)cccc4Cl)c(=O)n(C)c3n2)cc1 [Down13, PD-166285 hydrate]",,,% Activity (Npas2-LacZ expression): −35.5%
CCc1c(C)[nH]c2c1C(=O)C(CN1CCOCC1)CC2.Cl (stereo not drawn) [Molindone hydrochloride],,,"NPAS2 Z Score [1, 3]: −2.1; NPAS Z × ViabilityZ [1, 4]: −2.56; Migration (standardized viability) Z Score (human skin fibroblasts; [3]): 1.22"
Clc1ccc(COC(Cn2ccnc2)c2ccc(Cl)cc2Cl)cc1 (stereo not drawn) [Econazole nitrate],−2.41,0.805,
Cn1cnc2c1c(=O)[nH]c(=O)n2C [Theobromine],−2.04,−0.6,
C[C@@H]1C[C@@H]([C@H](O)CC2CC(=O)NC(=O)C2)C(=O)[C@@H](C)C1 [Cycloheximide],−3.29,−4.91,
C[C@]12C=CC(=O)C=C1CC[C@@H]1[C@@H]2[C@@H](O)C[C@@]2(C)[C@H]1CC[C@]2(O)C(=O)CO [Prednisolone],−2.42,−2.31,
O=C(O)COC(=O)Cc1ccccc1Nc1c(Cl)cccc1Cl [Aceclofenac],−2.16,0.666,
CCCNC(C)C(=O)Nc1c(C)csc1C(=O)OC.Cl (stereo not drawn) [Articaine hydrochloride],−2.02,−0.466,
Cc1c(NC(=O)c2cccnc2)c(=O)n(-c2ccccc2)n1C [Nifenazone],−2.41,−0.243,
"COc1cc([C@@H]2c3cc4c(cc3[C@H](O)[C@H]3COC(=O)[C@H]23)OCO4)cc(OC)c1OC [Down10, Podophyllotoxin]",,,% Activity (Npas2-LacZ expression): −15.6%
"Cn1c(=O)c(-c2c(Cl)cccc2Cl)cc2cnc(Nc3ccc(N4CCOCC4)cc3)nc21 [Down14, PD-173952]",,,% Activity (Npas2-LacZ expression): −33.0%
"COc1cc2c(c(OC)c1OC)-c1ccc(OC)c(=O)cc1[C@@H](NC(C)=O)CC2 [Down03, Colchicine]",,,% Activity (Npas2-LacZ expression): −29.7%
CN1C(=O)OC(C)(C)C1=O [Trimethadione],−2.74,−0.105,
Tyloxapol,,,NPAS2 Z Score [1]: −2.39; NpasZ × ViabilityZ [1]: −1.367; Migration (standardized viability) Z Score (human skin fibroblasts): 0.572

Compound,"NPAS2 Z Score [1, 2]",Migration (standardized viability) Z Score (human skin fibroblasts; [2]),further results
O=[N+]([O-])O[C@@H]1CO[C@H]2[C@@H]1OC[C@@H]2O [Isosorbide mononitrate],−2.01,0.647,
"OCC(O)CN1CCN(c2ccccc2)CC1 (racemic) [Dropropizine (R,S)]",−2.27,−1.21,
C[C@]12CC[C@@H]3c4ccc(O)cc4CC[C@H]3[C@@H]1CCC2=O [Estrone],−2.01,−2.56,
CCN(CC)C(=O)N1CCN(C)CC1.O=C(O)CC(O)(CC(=O)O)C(=O)O [Diethylcarbamazine citrate],−2.36,−2.08,
CC[C@H](C)C(=O)O[C@H]1C[C@H](O)C=C2C=C[C@H](C)[C@H](CC[C@@H](O)C[C@@H](O)CC(=O)O)[C@H]21 [Pravastatin],−2.16,0.64,
"CCN(CC)CCNC(=O)COc1ccc(OC)cc1.Cl [Mefexamide hydrochloride, mefexamide hydrochloride]",,,"NPAS2 Z Score [1, 3]: −2.06; NPAS Z × ViabilityZ [1, 4]: −2.31; Migration (standardized viability) Z Score (human skin fibroblasts; [3]): 1.12"
COc1cccc2c1C(=O)c1c(O)c3c(c(O)c1C2=O)C[C@@](O)(C(C)=O)C[C@@H]3O[C@H]1CC(N)[C@H](O)C(C)O1.Cl (stereo partly drawn) [Daunorubicin hydrochloride],−2.45,−4.56,
NCCc1c[nH]c2ccc(O)cc12 [serotonin],,,Width of scratch zone (fibroblasts): reduced
CC(=O)OC1CN2CCC1CC2.Cl (stereo not drawn) [Aceclidine Hydrochloride],−2.2,0.198,
Cl.NCc1ccc(S(N)(=O)=O)cc1 [Mafenide hydrochloride],−2.8,−0.188,
"S=c1nc[nH]c2nc[nH]c12 [MS-1500387, Mercaptopurine]",−2.08,0.577,
"O=C(O)c1cccnc1Nc1cccc(C(F)(F)F)c1 [Niflumic Acid, Niflumic acid]",,,"NPAS2 Z Score [1, 3]: −1.99; NPAS Z × ViabilityZ [1, 4]: −3.56; Migration (standardized viability) Z Score (human skin fibroblasts; [3]): 1.79"
"CNCC[C@@H](Oc1ccccc1C)c1ccccc1 [SAM001246626, Atomoxetine hydrochloride]",−2.6,−0.749,
NC(=O)OCC(O)COc1ccc(Cl)cc1 (stereo not drawn) [Chlorphensin carbamate],−2.36,−0.157,
CN1[C@@H]2CC[C@H]1CC(OC(=O)C(CO)c1ccccc1)C2.CN1[C@@H]2CC[C@H]1CC(OC(=O)C(CO)c1ccccc1)C2.O.O=S(=O)(O)O (stereo partly drawn) [Atropine sulfate monohydrate],−2.04,,"NpasZ × ViabilityZ ([1]; Table 2, combined Z score (product)): −0.3692"
"C[C@H]1CCC/C=C/[C@@H]2C[C@H](O)C[C@H]2[C@H](O)/C=C/C(=O)O1 [Down01, Brefeldin A]",,,% Activity (Npas2-LacZ expression): −45.4%
"CCOC(=O)[C@H](CCc1ccccc1)N[C@@H](C)C(=O)N1CCC[C@H]1C(=O)O [MS-1501214, enalapril maleate]",−3.22,−1.53,
CC[C@@]1([C@@H]2OC(C3O[C@@](O)(CO)[C@H](C)C[C@@H]3C)C[C@@H]2C)CC[C@H]([C@]2(C)CC[C@@]3(C[C@H](O)[C@@H](C)C([C@@H](C)[C@@H](OC)[C@H](C)C(=O)O)O3)O2)O1 (stereo partly drawn) [Monensin sodium salt],−4.34,−8.13,
"CC(C)NC[C@H](O)COc1ccc(CC(N)=O)cc1 [(S)-(-)-Atenolol, (S)-(−)-Atenolol]",,,NPAS2 Z Score [1]: −2
CCCCCC[C@H]1C(=O)O[C@H](C)[C@H](NC(=O)c2cccc(NC=O)c2O)C(=O)O[C@@H](C)[C@@H]1OC(=O)CC(C)C (stereo in doubt) [Antimycin A],,,"NPAS2 Z Score [1, 3]: −2.72; NPAS Z × ViabilityZ [1, 4]: −5.79; Migration (standardized viability) Z Score (human skin fibroblasts; [3]): 2.13"
